A value given as a limit tells only on which side of the number the result lay.

In general, EC50 refers to the concentration that produces a half-maximal response.

In one data set the target is T1, sGC enzyme (Homo sapiens, UniProt Q02153).
T1 construct: incorporated into these cells detect cGMP formed by the compounds stimulating the sGC enzyme; host or cells: HEK293 cells stably expressing the GloSensor 40F cGMP biosensor
T1 sequence (Q02153 1-619): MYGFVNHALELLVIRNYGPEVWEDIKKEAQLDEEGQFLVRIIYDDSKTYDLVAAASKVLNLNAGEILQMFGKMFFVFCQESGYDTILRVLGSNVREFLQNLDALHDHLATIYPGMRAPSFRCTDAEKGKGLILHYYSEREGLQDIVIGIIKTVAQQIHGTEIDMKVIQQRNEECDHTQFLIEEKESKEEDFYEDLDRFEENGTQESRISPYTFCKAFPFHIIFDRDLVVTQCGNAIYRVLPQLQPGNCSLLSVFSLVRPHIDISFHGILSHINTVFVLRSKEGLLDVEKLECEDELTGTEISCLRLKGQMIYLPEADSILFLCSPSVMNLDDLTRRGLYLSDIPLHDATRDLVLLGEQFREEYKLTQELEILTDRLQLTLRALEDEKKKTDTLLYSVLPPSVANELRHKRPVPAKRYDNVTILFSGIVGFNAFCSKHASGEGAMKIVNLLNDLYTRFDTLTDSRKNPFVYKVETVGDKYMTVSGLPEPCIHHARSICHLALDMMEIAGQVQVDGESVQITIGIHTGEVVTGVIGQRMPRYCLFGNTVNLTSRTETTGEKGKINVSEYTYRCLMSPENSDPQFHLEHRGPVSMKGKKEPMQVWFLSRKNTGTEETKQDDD
T1 sequence (Q02108 1-690 partner): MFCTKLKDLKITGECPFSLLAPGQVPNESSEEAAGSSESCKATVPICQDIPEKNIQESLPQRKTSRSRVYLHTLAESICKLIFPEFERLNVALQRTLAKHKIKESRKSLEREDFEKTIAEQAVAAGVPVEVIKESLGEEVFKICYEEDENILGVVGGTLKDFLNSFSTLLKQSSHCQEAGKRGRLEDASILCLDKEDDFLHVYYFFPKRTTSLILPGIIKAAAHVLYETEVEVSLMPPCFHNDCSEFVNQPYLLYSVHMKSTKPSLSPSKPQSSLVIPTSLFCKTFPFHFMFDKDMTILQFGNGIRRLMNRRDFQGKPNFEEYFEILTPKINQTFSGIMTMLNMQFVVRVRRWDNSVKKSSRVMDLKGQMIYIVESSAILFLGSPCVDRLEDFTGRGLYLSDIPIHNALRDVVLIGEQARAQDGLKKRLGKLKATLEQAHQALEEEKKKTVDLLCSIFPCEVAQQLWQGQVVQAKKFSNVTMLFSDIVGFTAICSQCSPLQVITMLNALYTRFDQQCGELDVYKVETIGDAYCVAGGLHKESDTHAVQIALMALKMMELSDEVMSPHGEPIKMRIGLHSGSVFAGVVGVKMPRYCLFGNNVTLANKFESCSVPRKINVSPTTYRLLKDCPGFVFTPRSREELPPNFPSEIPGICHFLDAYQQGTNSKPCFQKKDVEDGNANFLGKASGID
Put plainly: cGMP GloSensor cell-based assay, 384-well format. To be noted: HEK293 cells expressing GloSensor 40F cGMP; 10 μM DETA-NONOate; 55 min incubation; normalized to high control Compound Y (30 μM); read-out: Glo-sGC Absolute EC50. As for the experimental part: Human embryonic kidney cells (HEK293) cells expressing GloSensor™ 40F cGMP (Part No: CS182801, Promega) were used to evaluate the activity of test compounds. The luminescent biosensors (engineered luciferase) that were incorporated into these cells detect cGMP formed by the compounds stimulating the sGC enzyme and emit luminescence.
cGMP GoSensor cells were maintained in Dulbecco's Modification of Eagle's Medium (DMEM) supplemented with fetal bovine serum (FBS, 10% final) and hygromycine (200 ug/ml). The day before assay, cells were plated in DMEM with 10% FBS in a 50 μL volume at a density of 1.5×10^4 cells/well in a poly-D-lysine coated 384-well flat white-bottom plate (Corning Cat No 35661). Cells were incubated overnight at 37° C. in a humidified chamber with 5% CO2. The next day, medium was removed and cells were replaced with 40 ul/well of GoSensor™, 2 mM (Promega Cat No E1291). Cells were treated for 90 minutes at 25° C. to allow the substrate to equilibrate in the cells. Test compounds and Diethylenetriamine NONOate (DETA-NONOate) was diluted to 3 mM (20×) in serum-free CO2 independent medium and serially diluted at 4× dilutions to create 5× dose curve from which 10 ul was added to the wells (x μM concentration for test compound solution and 10 μM concentration for DETA-NONOate solution; wherein x is one of the following final concentrations).
For the kinetics studies, luminescence was measured right away for 0.2 sec per well with Envision (Perkin Elmer). For endpoint SAR screening, data were collected after 55 min incubation at room temperature.
Data were normalized to a high control using the following equation: 100*(Sample-Low Control)/(High Control-Low Control), where the low control is the average of sixteen DMSO (1%) control datapoints, and the high control is the average of sixteen Compound Y (30 μM) datapoints, wherein Compound Y is depicted below. Data were fit using a 4-parameter fit (log(agonist) vs. response—variable slope) using GraphPad Prism Software v.5. n=2 for all compounds. The Absolute EC50 was interpolated from the curve fit and is defined as the concentration at which a given compound elicits 50% of the high control response after data normalization as indicated above. Compounds failing to elicit a minimum response of 50% are reported as >30 μM or ND (not determined). For compounds run in duplicate or n higher than 2, the result herein given is the geometric mean of the several results obtained.
Take `CC(C)(O)CNc1nc(-c2cn3c(Cl)cnc3c(Cc3ccccc3F)n2)ncc1F` [Compound I-7]: the EC50 was in the range of 100 to 1000 nM.
Same read-out and setting: under `O=P([O-])([O-])OC(CNc1nc(-c2cn3ccnc3c(Cc3ccccc3F)n2)ncc1F)(C(F)(F)F)C(F)(F)F.[Na+].[Na+]` [Compound I-15] stands 1000 to 30000 nM; under `NC(=O)[C@](O)(CNc1nc(-c2cn3ncnc3c(Cc3ccccc3F)n2)ncc1F)C(F)(F)F` [Compound I-16], 100 to 1000 nM.
Still for that read-out and setting: under `Cc1c(F)cc(Cc2nc(-c3ncc(Cl)c(NCC(O)(C(F)(F)F)C(F)(F)F)n3)cn3ccnc23)cc1F` [Compound I-10] stands 1000 to 30000 nM.
The same measure, in the same setting: next, `NC(=O)[C@](O)(CNc1nc(-c2cn3ccnc3c(Cc3ccccc3F)n2)ncc1F)C(F)(F)F` [Compound I-3]: at most 100 nM; `NC(=O)[C@](O)(CNc1nc(-c2cn3ccnc3c(Cc3cc(F)ccc3F)n2)ncc1F)C(F)(F)F` [Compound I-5]: at most 100 nM.
For `OC(CNc1nc(-c2cn3ncnc3c(Cc3ccccc3F)n2)ncc1F)(C(F)(F)F)C(F)(F)F` [Compound I-6], the EC50 lay in the range of 100 to 1000 nM.
On the same count and under the same terms, under `COc1cnc(-c2cn3ncnc3c(Cc3ccccc3F)n2)nc1NCC(O)C(F)(F)F` (racemic) [Compound I-11] stands 1000 to 30000 nM.
`OC(CNc1nc(-c2cn3ccnc3c(Cc3ccccc3F)n2)ncc1Cl)C(F)(F)F` (racemic) [Compound I-8]: the EC50 was in the range of 100 to 1000 nM.
Same read-out and setting: next, `N#Cc1cnc(-c2cn3ncnc3c(Cc3ccccc3F)n2)nc1NCC(O)(C(F)(F)F)C(F)(F)F` [Compound I-12]: 100 to 1000 nM; `OC(CNc1nc(-c2cn3ccnc3c(Cc3ccccc3F)n2)ncc1F)(C(F)(F)F)C(F)(F)F` [Compound I-2, 1,1,1,3,3,3-hexafluoro-2-(((5-fluoro-2-(8-(2-fluorobenzyl)imidazo[1,2-a]pyrazin-6-yl)pyrimidin-4-yl)amino)methyl)propan-2-ol]: at most 100 nM; `OCCNc1ccnc(-c2cn3ccnc3c(Cc3ccccc3F)n2)n1` [Compound I-9]: 100 to 1000 nM.

For a further data set, the system named is Sprague-Dawley Rats. The data set is described as follows: Blood pressure change in Sprague-Dawley rats. The note with it: conscious rat, Compound I-15 (prodrug salt of I-2) dosed orally in water at 10 mg/kg, 160 minutes post-dose.
Protocol: Male rats (250-350 g body weight, supplied by Harlan Laboratories) were anesthetized with ketamine/xylazine and a heparinized saline fluid filled catheter implanted into the right femoral artery. The catheter was exteriorized between the scapula, capped, and the animal allowed to recover for at least 7 days post surgery prior to any compound testing. Prior to testing animals were maintained on normal diet, with free access to drinking water, under a 12 hour light-dark cycle.
On the day of experimentation, under inhaled isoflurane anesthesia, the catheter was uncapped and connected to a tether (Instech Labs) and pressure transducer (Harvard Apparatus). Blood pressure and heart rate were subsequently captured and analyzed with a dedicated data capture system (PowerLab, ADInstruments). Data sampling rates were set at 1 cycle per second. Once connected, each rat was allowed to recover from anesthesia and baseline blood pressure and heart rate levels were established in these conscious, freely-moving animals. Once baseline was established either vehicle (0.5% methylcellulose or 100% PEG400) or test article was administered orally (PO, 10 mg/kg) and the effects on blood pressure and heart rate monitored for up to 24 hours.
For the molecule `OC(CNc1nc(-c2cn3ccnc3c(Cc3ccccc3F)n2)ncc1F)(C(F)(F)F)C(F)(F)F` [Compound I-2, 1,1,1,3,3,3-hexafluoro-2-(((5-fluoro-2-(8-(2-fluorobenzyl)imidazo[1,2-a]pyrazin-6-yl)pyrimidin-4-yl)amino)methyl)propan-2-ol], the “decrease of MAP (mean arterial pressure) below baseline” value is reported as “about 10 mmHg”.

The data set is the same for the next values; noted with them: rat, dosed orally in water at 10 mg/kg, one hour post-dose.
On to `O=P([O-])([O-])OC(CNc1nc(-c2cn3ccnc3c(Cc3ccccc3F)n2)ncc1F)(C(F)(F)F)C(F)(F)F.[Na+].[Na+]` [Compound I-15], for which the “dosed Compound I-15 converted to Compound I-2” value is 97.5%.
